Structures can show the parent of a compound that is named as a salt.
Columns and labels:
human TLR7 = target: T1, human TLR7 (Homo sapiens, UniProt Q9NYK1); experiment: TLR7 inhibition reporter assay (HEK-Blue cells, SEAP reporter, gardiquimod stimulation); type: cell-based; conditions: HEK-Blue cells overexpressing human TLR7, gardiquimod 7.5 μM
T1 construct: host or cells: HEK-Blue cells
T1 sequence (Q9NYK1 27-1049): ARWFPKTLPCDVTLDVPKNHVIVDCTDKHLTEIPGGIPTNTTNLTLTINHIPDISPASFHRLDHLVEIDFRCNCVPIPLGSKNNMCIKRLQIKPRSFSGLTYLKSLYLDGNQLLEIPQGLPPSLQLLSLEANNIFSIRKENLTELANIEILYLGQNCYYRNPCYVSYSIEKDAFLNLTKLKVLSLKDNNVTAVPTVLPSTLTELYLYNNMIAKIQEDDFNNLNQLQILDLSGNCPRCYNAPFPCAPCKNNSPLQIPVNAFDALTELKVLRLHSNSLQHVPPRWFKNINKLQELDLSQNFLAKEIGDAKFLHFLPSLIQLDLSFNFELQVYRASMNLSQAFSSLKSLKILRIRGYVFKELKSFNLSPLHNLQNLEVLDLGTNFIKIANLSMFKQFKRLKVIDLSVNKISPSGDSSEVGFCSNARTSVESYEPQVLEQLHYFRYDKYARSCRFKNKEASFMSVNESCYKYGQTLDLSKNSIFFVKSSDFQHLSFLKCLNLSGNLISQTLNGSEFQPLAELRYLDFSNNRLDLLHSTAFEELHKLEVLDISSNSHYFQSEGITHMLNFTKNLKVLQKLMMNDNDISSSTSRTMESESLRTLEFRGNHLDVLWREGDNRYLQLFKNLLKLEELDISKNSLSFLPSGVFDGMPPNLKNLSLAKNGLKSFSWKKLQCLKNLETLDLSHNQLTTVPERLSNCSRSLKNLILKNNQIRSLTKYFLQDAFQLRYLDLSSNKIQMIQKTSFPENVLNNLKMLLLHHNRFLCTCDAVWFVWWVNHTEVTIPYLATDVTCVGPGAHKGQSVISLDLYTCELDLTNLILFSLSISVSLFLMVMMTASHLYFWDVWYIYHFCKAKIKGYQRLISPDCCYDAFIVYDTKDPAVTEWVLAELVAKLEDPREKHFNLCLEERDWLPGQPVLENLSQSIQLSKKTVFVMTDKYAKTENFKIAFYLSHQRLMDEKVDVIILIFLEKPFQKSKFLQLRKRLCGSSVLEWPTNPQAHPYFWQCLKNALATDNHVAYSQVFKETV
Procedure: (§1) TLR7/8/9 Inhibition Reporter Assays
Briefly, cells are seeded into Greiner 384 well plates (15000 cells per well for TLR7, 20,000 for TLR8 and 25,000 for TLR9) and then treated with test compounds in DMSO to yield a final dose response concentration range of 0.05 nM-50 μM. […] After a 22 hour incubation at 37° C., 5% CO2, SEAP levels are determined with the addition of HEK-Blue™ Detection reagent (Invivogen), a cell culture medium that allows for detection of SEAP, according to manufacturer's specifications. The percent inhibition is determined as the % reduction in the HEK-Blue signal present in wells treated with agonist plus DMSO alone compared to wells treated with a known inhibitor.

human TLR9 = target: T2, human TLR9 (Homo sapiens, UniProt Q9NR96); experiment: TLR9 inhibition reporter assay (HEK-Blue cells, SEAP reporter, ODN2006 stimulation); type: cell-based; conditions: HEK-Blue cells overexpressing human TLR9, ODN2006 5 nM
T2 construct: host or cells: HEK-Blue cells
T2 sequence (Q9NR96 26-1032): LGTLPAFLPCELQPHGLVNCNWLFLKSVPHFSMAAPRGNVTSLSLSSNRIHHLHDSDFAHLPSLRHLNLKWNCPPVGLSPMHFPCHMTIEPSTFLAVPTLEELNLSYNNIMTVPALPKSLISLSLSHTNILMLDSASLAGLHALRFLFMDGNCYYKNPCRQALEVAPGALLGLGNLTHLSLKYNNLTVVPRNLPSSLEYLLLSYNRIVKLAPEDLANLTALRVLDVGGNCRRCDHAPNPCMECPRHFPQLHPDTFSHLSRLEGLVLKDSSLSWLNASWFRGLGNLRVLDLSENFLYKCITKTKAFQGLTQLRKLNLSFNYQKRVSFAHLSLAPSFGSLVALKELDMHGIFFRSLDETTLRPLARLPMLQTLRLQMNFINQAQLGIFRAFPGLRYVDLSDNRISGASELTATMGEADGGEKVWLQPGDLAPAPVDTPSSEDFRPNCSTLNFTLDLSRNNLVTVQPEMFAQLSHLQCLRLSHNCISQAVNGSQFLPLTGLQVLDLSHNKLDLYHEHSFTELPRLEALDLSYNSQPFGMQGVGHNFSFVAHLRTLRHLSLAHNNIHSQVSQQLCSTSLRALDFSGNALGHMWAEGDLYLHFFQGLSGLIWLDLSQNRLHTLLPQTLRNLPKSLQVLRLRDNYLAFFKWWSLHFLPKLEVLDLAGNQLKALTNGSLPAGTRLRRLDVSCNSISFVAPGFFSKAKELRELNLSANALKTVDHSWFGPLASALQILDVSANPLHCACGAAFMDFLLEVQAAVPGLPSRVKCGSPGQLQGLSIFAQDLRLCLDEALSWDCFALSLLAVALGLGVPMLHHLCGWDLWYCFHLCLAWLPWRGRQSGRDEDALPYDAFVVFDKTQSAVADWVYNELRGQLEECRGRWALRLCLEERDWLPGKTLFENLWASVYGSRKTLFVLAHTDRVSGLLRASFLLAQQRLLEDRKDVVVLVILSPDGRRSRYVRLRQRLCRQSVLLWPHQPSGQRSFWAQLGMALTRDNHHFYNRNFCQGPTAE
Procedure: as §1
HEK-Blue™-cells (Invivogen) overexpressing human TLR7, TLR8 or TLR9 receptors were used for screening inhibitors of these receptors using an inducible SEAP (secreted embryonic alkaline phosphatase) reporter gene under the control of the IFN-β minimal promoter fused to five NF-κB and AP-1-binding sites. Briefly, cells are seeded into Greiner 384 well plates (15000 cells per well for TLR7, 20,000 for TLR8 and 25,000 for TLR9) and then treated with test compounds in DMSO to yield a final dose response concentration range of 0.05 nM-50 μM. After a 30 minute compound pre-treatment at room temperature, the cells are then stimulated with a TLR7 ligand (gardiquimod at a final concentration of 7.5 μM), TLR8 ligand (R848 at a final concentration of 15.9 μM) or TLR9 ligand (ODN2006 at a final concentration of 5 nM) to activate NF-κB and AP-1 which induce the production of SEAP. After a 22 hour incubation at 37° C., 5% CO2, SEAP levels are determined with the addition of HEK-Blue™ Detection reagent (Invivogen), a cell culture medium that allows for detection of SEAP, according to manufacturer's specifications. The percent inhibition is determined as the % reduction in the HEK-Blue signal present in wells treated with agonist plus DMSO alone compared to wells treated with a known inhibitor.

Row | Compound | IC50 (human TLR7) [nM] | IC50 (human TLR9) [nM]
1 | COc1ccc(-c2[nH]c3ccc(C4CCNCC4)cc3c2C2CCOCC2)cc1OC [Example 389, 2-(3,4-dimethoxyphenyl)-5-(piperidin-4-yl)-3-(tetrahydro-2H-pyran-4-yl)-1H-indole] | 300 | 1640
2 | COc1ccc(-c2[nH]c3ccc(C4CCN(Cc5cccc(C#N)c5)CC4)cc3c2C(C)C)cc1OC [Example 264, 3-((4-(2-(3,4-dimethoxyphenyl)-3-isopropyl-1H-indol-5-yl)piperidin-1-yl)methyl)benzonitrile] | 364 | 5090
3 | COc1ccc(-c2[nH]c3ccc(C4CCN(Cc5ccc(N(C)C)cc5)CC4)cc3c2C)cc1OC [Example 37, 4-((4-(2-(3,4-dimethoxyphenyl)-3-methyl-1H-indol-5-yl)piperidin-1-yl)methyl)-N,N-dimethylaniline] | 1050 | 637
4 | COc1ccc(-c2[nH]c3ccc(C4CCN(Cc5ccc(OC(F)(F)F)cc5)CC4)cc3c2C(C)C)cc1OC [Example 271, 2-(3,4-dimethoxyphenyl)-3-isopropyl-5-(1-(4-(trifluoromethoxy)benzyl)piperidin-4-yl)-1H-indole] | 2380 | 10600
5 | COc1ccc(-c2[nH]c3ccc(C4CCN(C[C@@H]5CCCN5)CC4)cc3c2C)cc1OC [Example 107, (S)-2-(3,4-dimethoxyphenyl)-3-methyl-5-(1-(pyrrolidin-2-ylmethyl)piperidin-4-yl)-1H-indole] | 1310 | 614
6 | COc1ccc(-c2[nH]c3ccc(C4CCN(Cc5cccc(NS(C)(=O)=O)c5)CC4)cc3c2C(C)C)cc1OC [Example 260, N-(3-((4-(2-(3,4-dimethoxyphenyl)-3-isopropyl-1H-indol-5-yl)piperidin-1-yl)methyl)phenyl)methanesulfonamide] | 64 | 2700
7 | COc1ccc(-c2[nH]c3ccc(C4CCN(C5CCCNCC5)CC4)cc3c2C)cc1OC (stereo not drawn) [Example 103, 5-(1-(azepan-4-yl)piperidin-4-yl)-2-(3,4-dimethoxyphenyl)-3-methyl-1H-indole] | 344 | 157
8 | CCc1c(-c2ccc(OC)c(OC)c2)[nH]c2ccc(C3CCN(C(=O)CN(C)C(C)C)CC3)cc12 [Example 170, 1-(4-(2-(3,4-dimethoxyphenyl)-3-ethyl-1H-indol-5-yl)piperidin-1-yl)-2-(isopropyl(methyl)amino) ethan-1-one] | 257 | 1670
9 | COc1ccc(-c2[nH]c3ccc(C4CCN(Cc5csc(N)n5)CC4)cc3c2C)cc1OC [Example 14, 4-((4-(2-(3,4-dimethoxyphenyl)-3-methyl-1H-indol-5-yl)piperidin-1-yl)methyl)thiazol-2-amine] | 2110 | 1090
10 | COc1ccc(-c2[nH]c3ccc(C4CCN(C5CCNC5)CC4)cc3c2C)cc1OC (stereo not drawn) [Example 104, 2-(3,4-dimethoxyphenyl)-3-methyl-5-(1-(pyrrolidin-3-yl)piperidin-4-yl)-1H-indole] | 2170 | 1050
11 | COc1ccc(-c2[nH]c3ccc(C4CCN(C5CCN(CCCSC)CC5)CC4)cc3c2C)cc1OC [Example 53, 2-(3,4-dimethoxyphenyl)-3-methyl-5-(1′-(3-(methylthio)propyl)-[1,4′-bipiperidin]-4-yl)-1H-indole] | 188 | 116
12 | CCc1c(-c2ccc(OC)c(OC)c2)[nH]c2ccc(C3CCN(C(=O)CN4CCCC(CO)C4)CC3)cc12 (stereo not drawn) [Example 169, 1-(4-(2-(3,4-dimethoxyphenyl)-3-ethyl-1H-indol-5-yl)piperidin-1-yl)-2-(3-(hydroxymethyl)piperidin-1-yl)ethan-1-one] | 144 | 2100
13 | CCc1c(-c2ccc(OC)c(OC)c2)[nH]c2ccc(C3CCN(C(=O)CN4CCCN(C(C)=O)CC4)CC3)cc12 [Example 166, 2-(4-acetyl-1,4-diazepan-1-yl)-1-(4-(2-(3,4-dimethoxyphenyl)-3-ethyl-1H-indol-5-yl)piperidin-1-yl)ethan-1-one] | 300 | 6440
14 | COc1ccc(-c2[nH]c3ccc(C4CCN(C(C)CN(C)C)CC4)cc3c2C)cc1OC (stereo not drawn) [Example 30, 2-(4-(2-(3,4-dimethoxyphenyl)-3-methyl-1H-indol-5-yl)piperidin-1-yl)-N,N-dimethylpropan-1-amine] | 666 | 860
15 | COc1ccc(-c2[nH]c3ccc(C4CCN(Cc5cccn5C)CC4)cc3c2C)cc1OC [Example 29, 2-(3,4-dimethoxyphenyl)-3-methyl-5-(1-((1-methyl-1H-pyrrol-2-yl)methyl)piperidin-4-yl)-1H-indole] | 1630 | 787
16 | COc1ccc(-c2[nH]c3ccc(C4CCN(Cc5cccc6cccnc56)CC4)cc3c2C)cc1OC [Example 36, 8-((4-(2-(3,4-dimethoxyphenyl)-3-methyl-1H-indol-5-yl)piperidin-1-yl)methyl)quinoline] | 1160 | 348
17 | COc1ccc(-c2[nH]c3ccc(C4CCN(Cc5ccc(-n6ccnc6)cc5)CC4)cc3c2C(C)C)cc1OC [Example 263, 5-(1-(4-(1H-imidazol-1-yl)benzyl)piperidin-4-yl)-2-(3,4-dimethoxyphenyl)-3-isopropyl-1H-indole] | 82 | 790
18 | COc1ccc(-c2[nH]c3ccc(C4CCNCC4)cc3c2C)cc1OC [Example 1, 2-(3,4-dimethoxyphenyl)-3-methyl-5-(piperidin-4-yl)-1H-indole hydrochloride] | – | 5910
19 | COc1ccc(-c2[nH]c3ccc(C4CCN(Cc5nccn5C)CC4)cc3c2C)cc1OC [Example 16, 2-(3,4-dimethoxyphenyl)-3-methyl-5-(1-((1-methyl-1H-imidazol-2-yl)methyl)piperidin-4-yl)-1H-indole] | – | 1970
